Assays:
KV4.3 (Ito) = biological target: T1, KV4.3 (Ito) (Canis lupus familiaris, UniProt A0A8I3NA05); assay: Whole-cell patch clamp of Ito in dissociated canine ventricular epicardial myocytes; type: cell-based
T1 sequence (A0A8I3NA05 1-655): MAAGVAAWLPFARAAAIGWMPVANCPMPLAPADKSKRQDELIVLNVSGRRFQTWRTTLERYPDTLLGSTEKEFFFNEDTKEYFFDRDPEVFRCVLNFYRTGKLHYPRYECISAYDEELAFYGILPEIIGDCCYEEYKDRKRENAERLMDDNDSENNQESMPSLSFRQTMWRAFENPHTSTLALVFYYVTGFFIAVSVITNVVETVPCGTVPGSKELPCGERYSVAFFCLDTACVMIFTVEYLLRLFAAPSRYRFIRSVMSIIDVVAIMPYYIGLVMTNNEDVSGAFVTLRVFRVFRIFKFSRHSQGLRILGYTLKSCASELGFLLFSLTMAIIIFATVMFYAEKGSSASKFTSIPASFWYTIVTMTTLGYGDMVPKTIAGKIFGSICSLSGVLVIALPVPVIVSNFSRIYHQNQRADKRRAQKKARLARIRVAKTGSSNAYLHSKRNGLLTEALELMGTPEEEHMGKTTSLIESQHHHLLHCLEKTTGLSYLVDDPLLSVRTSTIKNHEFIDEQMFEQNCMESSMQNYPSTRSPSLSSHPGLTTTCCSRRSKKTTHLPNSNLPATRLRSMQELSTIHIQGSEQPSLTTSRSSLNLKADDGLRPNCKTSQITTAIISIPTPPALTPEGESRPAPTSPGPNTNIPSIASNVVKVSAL
Method: (§1) Single myocytes were isolated from coronary-perfused canine right or left ventricular wedge preparations via enzymatic dissociation. Briefly, the wedge preparations were coronary perfused with nominally Ca^+2-free Tyrode's solution for a period of 15 min. They were then subjected to enzymatic digestion in nominally Ca^2+-free solution supplemented with 0.6 mg/ml collagenase (type II; Worthington) and 0.075 mg/ml protease (type XIV; Sigma) for 25-35 min. The wedge preparation was then perfused for 15 min with a taurine buffer solution containing (in mM): 108 NaCl, 10 HEPES, 11 D-glucose, 4 KCl, 1.2 MgSO4, 1.2 NaH2PO4, 50 taurine and 0.025 CaCl2. pH was adjusted to 7.4 using NaOH. After perfusion, thin slices of tissue were cut from the epicardial surface to obtain single epicardial cells as previously described.^6
Ito and APs were measured in isolated RV or LV myocytes. APs were measured in the current-clamp mode in the whole-cell configuration. APs were initiated using intracellular current injection and recorded continuously by means of Clampex software (Axon Instruments/Molecular Devices) at a sampling frequency of […]. Ito was measured using the Axopatch 200B-2 amplifier in V-Clamp mode.
Ito was recorded in isolated ventricular epicardial cells at 37° C. using whole-cell patch clamp techniques. Ito was elicited using a series of 350 ms voltage steps between −50 mV and +40 mV from a holding potential of −90 mV. A 15 ms prepulse to −20 mV was used to discharge the sodium current. Interpulse interval was 50 ms. The amplitude of Ito was determined by subtracting […] at the end of the pulse. The total charge carried by Ito was determined by calculating the area under the Ito current waveform. The extracellular solution contained (in mM): 140 NaCl, 4 KCl, 1.8 CaCl2, 1.2 MgCl2, 10 HEPES, and 10 glucose, pH 7.4 (adjusted with NaOH). The intracellular solution contained (in mM): 120 KCl, 1.5 MgCl2, 10 HEPES, 0.5 EGTA, 0.01 CaCl2, 5 MgATP, pH 7.2 (adjusted with NaOH). Following baseline measurements, recordings was repeated during exposure to AR-787.

CaV1.2 (ICa) = assay: Whole-cell patch clamp of ICa in canine ventricular myocytes; type: cell-based; conditions: 10 μM; at 0 mV; control −5.13+0.77; shift not statistically significant
Method: as §1
ICa was measured in canine ventricular myocytes at 37° C. ICa was elicited by application of 300 ms steps from −50 to +40 mV. Extended protocols were avoided to prevent current rundown. Internal solution contained (in mM): 120 CsCl, 1 MgCl2, 10 EGTA, 5 Mg-ATP, 10 HEPES, 5 CaCl2. pH was adjusted to 7.2 with CsOH. External solution contained (in mM): 140 NaCl, 10 HEPES, 10 D-glucose, 4 KCl, 1 MgCl2, 2 CaCl2, 2 4-AP and 0.1 BaCl2.

Compound: Cc1nc(-n2cccc2)sc1C(=O)N=c1[nH]c2ccccc2[nH]1 [AR-787, N-(1H-benzimidazol-2-yl)-4-methyl-2-pyrrol-1-yl-thiazole-5-carboxamide]
- inhibition at 1 µM (KV4.3 (Ito); 1 μM, at +20 mV, 37° C., read-out: reduction of Ito density): 34%
- inhibition at 10 µM (KV4.3 (Ito); 10 μM, at +20 mV, 37° C., read-out: reduction of Ito density): 68%
- inhibition at 50 µM (KV4.3 (Ito); 50 μM, at +20 mV, 37° C., read-out: reduction of Ito density): 85.2%
- IC50 (KV4.3 (Ito); estimated, read-out: IC50 for Ito inhibition): ~8 µM
- ICa peak density (CaV1.2 (ICa)): −6.95+1.88 pA/pF
